Among the data in patent US11564923B2, “Compounds and pharmaceutical compositions thereof for the treatment of inflammatory disorders” (Galapagos NV, priority 2017, dated 2023) are IC50 values, retold here.

By IC50 is commonly meant the concentration that inhibits the measured activity by half.

For experiment [1], the target named is T1, Recombinant human JAK1 (catalytic domain, amino acids 866-1154) (Homo sapiens, UniProt P23458).
T1 construct: catalytic domain, amino acids 866-1154
As to the kind of experiment: JAK1 inhibition assay. The conditions noted are these: read-out: JAK1 potency IC50. The experiment is classed as biochemical. Here is the method: After 60 min at room temperature, reactions are stopped by adding 20 μL/well of detection mixture (1× detection buffer (Perkin Elmer, catalog number CR97-100), 0.5 nM Europium-anti-phosphotyrosine (PT66) (Perkin Elmer, catalog number AD0068/AD0069), 10 mM EDTA). […] Kinase activity is calculated by subtracting the ratio obtained in the presence of a positive control inhibitor (1 μM staurosporine) from the ratio obtained in the presence of vehicle. The ability of a test compound to inhibit this activity (or percentage inhibition) is determined as:
(§1) [formula] wherein Fluorescent ratio test compound=ratio RFU665/RFU615*1000 determined for sample with test compound present Fluorescent ratio control=ratio RFU665/RFU615*1000 determined for sample with positive control inhibitor Fluorescent ratio vehicle=ratio RFU665/RFU615*1000 determined in the presence of vehicle
Dose dilution series were prepared for the compounds enabling the testing of dose-response effects in the JAK1 assay and the calculation of the IC50 for the compound. Each compound is routinely tested at concentration of 20 μM followed by a 1/5 serial dilution, 10 points in a final concentration of 1% DMSO. […] The data are expressed as the average IC50 from the assays.

The target of experiment [2] is T2, Recombinant human JAK2 (catalytic domain, amino acids 808-1132) (Homo sapiens, UniProt O60674).
T2 construct: catalytic domain, amino acids 808-1132
T2 sequence (O60674 808-1132): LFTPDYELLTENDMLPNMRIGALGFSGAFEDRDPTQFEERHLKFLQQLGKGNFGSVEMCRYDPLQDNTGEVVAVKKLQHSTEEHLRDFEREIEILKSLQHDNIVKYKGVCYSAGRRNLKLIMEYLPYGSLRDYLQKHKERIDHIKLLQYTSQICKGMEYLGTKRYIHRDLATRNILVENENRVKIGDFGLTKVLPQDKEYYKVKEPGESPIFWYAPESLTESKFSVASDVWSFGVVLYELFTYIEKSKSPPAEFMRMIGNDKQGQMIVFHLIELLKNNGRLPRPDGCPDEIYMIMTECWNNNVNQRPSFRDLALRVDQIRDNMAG
The experiment is described as follows: JAK2 inhibition assay. Further: 0.7 µM ATP. As to conditions: read-out: JAK2 potency IC50. The experiment is classed as biochemical. Here is the method:
After 60 min at room temperature, reactions are stopped by adding 20 μL/well of detection mixture (1× detection buffer (Perkin Elmer, catalog number CR97-100) with 0.5 nM Europium-anti-phosphotyrosine (PT66) (Perkin Elmer, catalog number AD0068/AD0069) and 10 mM EDTA). […] Kinase activity is calculated by subtracting the ratio obtained in the presence of a positive control inhibitor (1 μM staurosporine) from the ratio obtained in the presence of vehicle. The ability of a test compound to inhibit this activity (or percentage inhibition) is determined as:
as §1
Dose dilution series are prepared for compound enabling the testing of dose-response effects in the JAK2 assay and the calculation of the IC50 for the compound. Each compound is routinely tested at concentration of 20 μM followed by a 1/5 serial dilution, 10 points in a final concentration of 1% DMSO. […] The data are expressed as the average IC50 from the assays.

Experiment [3] concerns the target Recombinant human JAK3 catalytic domain (amino acids 781-1124) (Homo sapiens, UniProt P52333). As to the kind of experiment: JAK3 inhibition assay. The experiment is classed as biochemical. Here is the method: After 45 min at 30° C., reactions are stopped by adding 25 μL/well of 150 mM phosphoric acid. […] Plates are washed 6 times with 300 μL per well of a 75 mM phosphoric acid solution and the bottom of the plates is sealed. […] Kinase activity is calculated by subtracting counts per min (cpm) obtained in the presence of a positive control inhibitor (10 μM staurosporine) from cpm obtained in the presence of vehicle. The ability of a test compound to inhibit this activity (or percentage inhibition) is determined as: […]
cpm test compound=cpm determined for sample with test compound present cpm control=cpm determined for sample with positive control inhibitor cpm vehicle=cpm determined in the presence of vehicle
Dose dilution series were prepared for the compounds enabling the testing of dose-response effects in the JAK3 assay and the calculation of the IC50 for each compound. Each compound is routinely tested at concentration of 20 μM followed by a 1/5 serial dilution, 10 points in a final concentration of 1% DMSO.

Experiment [4] has as its target T3, Recombinant human TYK2 catalytic domain (amino acids 871-1187) (Homo sapiens, UniProt P29597).
T3 construct: catalytic domain (amino acids 871-1187)
T3 sequence (P29597 871-1187): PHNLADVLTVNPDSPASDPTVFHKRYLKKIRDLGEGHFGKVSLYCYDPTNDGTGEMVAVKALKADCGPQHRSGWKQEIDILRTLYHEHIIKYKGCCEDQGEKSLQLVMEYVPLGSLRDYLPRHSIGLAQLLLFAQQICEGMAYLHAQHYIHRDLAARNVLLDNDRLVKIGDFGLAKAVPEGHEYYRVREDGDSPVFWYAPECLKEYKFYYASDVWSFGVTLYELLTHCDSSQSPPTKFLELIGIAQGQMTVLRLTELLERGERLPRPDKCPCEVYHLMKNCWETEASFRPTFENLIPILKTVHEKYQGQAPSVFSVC
As to the kind of experiment: TYK2 radioactive assay polyGT substrate. Further: 0.1 µM ATP. The experiment is classed as biochemical. In a few lines: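 Reaction at 30° C. for 120 min, ended with 150 mM phosphoric acid, washed, counted; percent inhibition scaled between vehicle and 10 μM staurosporine cpm.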

Experiment [5] has as its system IFNα activation of STAT1 in PBMC. The experiment is described as follows: IFNα activation of STAT1 in PBMC. The experiment is classed as cell-based. As to conditions: Homo sapiens; IFNα activation of STAT1 in PBMC; average IC50; read-out: IFNα signaling inhibitory potency IC50. The gist of the method: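 Human PBMC, with red cells lysed by NH4Cl, were pre-treated with compound for 30 min at 37 °C and 5% CO2. They were then stimulated for 30 min with recombinant human IFNα at 5 ng/mL final.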

Experiment [6] has as its system IL-12 activation of STAT4 in NK-92 cells. The experiment is described as follows: IL-12 activation of STAT4 in NK-92 cells using AphaLISA SureFire technology. The experiment is classed as cell-based. As to conditions: Homo sapiens, NK92; IL-12 activation of STAT4 in NK-92 cells, AlphaLISA SureFire; average IC50; read-out: IL12 pSTAT4 IC50. The gist of the method:
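NK-92 cells, starved of rhIL-2 overnight, were stimulated with rhIL-12 for 30 min at 37 °C with test compounds, then lysed. Phospho-STAT4 (Tyr693) was read by AlphaLISA SureFire. Percent inhibition versus the vehicle-plus-trigger signal was fitted by sigmoidal nonlinear regression to give IC50, averaged over experiments.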
(In general: In Alpha technology, singlet oxygen from a donor bead excites a nearby acceptor bead.)

T1 sequence (P23458 866-1154): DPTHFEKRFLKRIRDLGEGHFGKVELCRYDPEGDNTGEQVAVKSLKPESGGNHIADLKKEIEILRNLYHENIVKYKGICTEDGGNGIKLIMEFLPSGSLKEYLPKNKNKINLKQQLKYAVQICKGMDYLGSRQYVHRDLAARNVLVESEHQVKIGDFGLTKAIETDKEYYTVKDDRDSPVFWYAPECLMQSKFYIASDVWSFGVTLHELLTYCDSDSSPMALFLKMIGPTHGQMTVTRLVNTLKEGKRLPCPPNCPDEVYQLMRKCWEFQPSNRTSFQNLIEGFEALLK
Sequence of Recombinant human JAK3 catalytic domain (amino acids 781-1124) (P52333 781-1124): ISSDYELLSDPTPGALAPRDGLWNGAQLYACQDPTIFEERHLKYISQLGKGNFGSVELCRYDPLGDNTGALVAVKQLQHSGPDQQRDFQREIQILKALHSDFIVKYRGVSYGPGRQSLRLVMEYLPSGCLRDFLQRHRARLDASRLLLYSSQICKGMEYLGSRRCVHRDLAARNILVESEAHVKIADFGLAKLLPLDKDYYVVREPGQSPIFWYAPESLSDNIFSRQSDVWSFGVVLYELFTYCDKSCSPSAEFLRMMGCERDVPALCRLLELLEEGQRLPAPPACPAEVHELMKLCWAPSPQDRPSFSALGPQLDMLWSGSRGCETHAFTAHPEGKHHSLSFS

Regarding `Cc1cc(C#N)nnc1Oc1cc(Nc2cc(N)ncn2)c2ncn(C)c2n1` [Compound 3, 6-[7-(6-Amino-pyrimidin-4-ylamino)-3-methyl-3H-imidazo[4,5-b]pyridin-5-yloxy]-5-methyl-pyridazine-3-carbonitrile], the IC50 in experiment [1] is 110 nM; in experiment [2] it was 78 nM; in experiment [3], 2160 nM; in experiment [4], 12.7 nM; in experiment [5], 119 nM; in experiment [6], 274 nM.
Consider `COCCCN(c1cc(Nc2cc(N)ncn2)c2ncn(C)c2n1)c1cnc(C#N)cc1C` [Compound 4, 5-[[7-(6-Amino-pyrimidin-4-ylamino)-3-methyl-3H-imidazo[4,5-b]pyridin-5-yl]-(3-methoxy-propyl)-amino]-4-methyl-pyridine-2-carbonitrile], for which the IC50 in experiment [1] was 92.3 nM; in experiment [2], 16.4 nM; in experiment [3], 784 nM; in experiment [4] it was 4.37 nM; in experiment [5], 91 nM; in experiment [6], 198 nM.
For `Cc1cc(C#N)ncc1Oc1cc(Nc2ccc(C(=O)N3CC(C(C)(C)O)C3)nn2)c2ncn(C)c2n1` [Compound 111, 5-[7-[[6-[3-(1-hydroxy-1-methyl-ethyl)azetidine-1-carbonyl]pyridazin-3-yl]amino]-3-methyl-imidazo[4,5-b]pyridin-5-yl]oxy-4-methyl-pyridine-2-carbonitrile], the IC50 in experiment [1] is 310 nM; in experiment [2], 29.7 nM; in experiment [3] it was 1050 nM; in experiment [4], 5.53 nM; in experiment [5] it was 123 nM.
On to `Cc1cc(C#N)ncc1Oc1cc(Nc2ccc(N3CCC(N(C)C)C3)cn2)c2ncn(C)c2n1` (stereo not shown) [Compound 182, 5-[7-[[5-[3-(dimethylamino)pyrrolidin-1-yl]-2-pyridyl]amino]-3-methyl-imidazo[4,5-b]pyridin-5-yl]oxy-4-methyl-pyridine-2-carbonitrile], for which the half-inhibitory concentration (IC50) in experiment [1] was determined as 165 nM; in experiment [2], 76.4 nM; in experiment [3] it was 721 nM; in experiment [4], 17.2 nM.
The corresponding values for `COCCN(C)c1ccc(Nc2cc(Oc3cnc(C#N)cc3C)nc3c2ncn3C)nc1` [Compound 183, 5-[7-[[5-[2-methoxyethyl(methyl)amino]-2-pyridyl]amino]-3-methyl-imidazo[4,5-b]pyridin-5-yl]oxy-4-methyl-pyridine-2-carbonitrile] are 95.4 nM, 41.2 nM, 561 nM and 12.9 nM.
The corresponding values for `Cc1cc(C#N)ncc1Oc1cc(Nc2ccc(N3CCC(CO)CC3)cn2)c2ncn(C)c2n1` [Compound 184, 5-[7-[[5-[4-(hydroxymethyl)-1-piperidyl]-2-pyridyl]amino]-3-methyl-imidazo[4,5-b]pyridin-5-yl]oxy-4-methyl-pyridine-2-carbonitrile] are 59 nM, 22.1 nM, 487 nM and 6.42 nM.
The corresponding values for `Cc1cc(C#N)ncc1Oc1cc(Nc2ccc(N(C)C)cn2)c2ncn(C)c2n1` [Compound 185, 5-[7-[[5-(dimethylamino)-2-pyridyl]amino]-3-methyl-imidazo[4,5-b]pyridin-5-yl]oxy-4-methyl-pyridine-2-carbonitrile] are 93.6 nM, 41.4 nM, 871 nM and 17 nM.
For the molecule `Cc1cc(C#N)ncc1N(CC(C)O)c1cc(Nc2cc(N)ncn2)c2ncn(C)c2n1` (stereo not shown) [Cpd 187, 5-[[7-[(6-aminopyrimidin-4-yl)amino]-3-methyl-imidazo[4,5-b]pyridin-5-yl]-(2-hydroxypropyl)amino]-4-methyl-pyridine-2-carbonitrile], the IC50 came to 127 nM in experiment [1], 42.3 nM in experiment [2], 660 nM in experiment [3] and 6.54 nM in experiment [4].
